Read-outs that look alike come from different tables or passages of the source.
Experiments:
[1] = test system: Nrf2 / ARE-dependent luciferase in AREc32 reporter cell line; assay: AREc32 luciferase reporter activation (Nrf2 induction); format: cell-based, human; conditions: for EC (2-fold): Homo sapiens, Arec32; for Relative Avg AREc32 EC2X Relative to RTA402 (fold): ratio to RTA402
In short: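 EC2X is the concentration raising luminescence 2-fold above DMSO-treated cells, from a nonlinear-regression dose–response fit. Compounds (0.03–1000 nM) were applied for nineteen hours, starting one day after seeding 20,000 reporter cells per well. Luciferase was read with One-Glo reagent.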

[2] = test system: IFNγ-induced NO production in RAW 264.7 cells; assay: Nitric Oxide Suppression Assay (IFNγ-induced NO, Griess nitrite readout); format: cell-based, mouse; conditions: for IC50: Mus musculus; for Avg NO IC50 Relative to RTA402 (fold): Table 2, ratio to RTA402
In short: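 Nitrite, a surrogate for NO, was measured by Griess reagent (525 nm) and quantified from standards by linear regression, expressed as percent of DMSO plus IFNγ control to give IC50. RAW 264.7 cells had 2 h compound pretreatment, then 24 h with 20 ng/mL IFNγ; WST-1 checked viability.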

[3] = Table 2, concentration increasing luminescence 2-fold above vehicle, 19 h treatment, read-out: Avg AREc32 EC2X (nM) (Mean ± SD)
[4] = RAW264.7, Table 2, RAW 264.7 cells, 2 h pretreatment, 20 ng/mL interferon gamma 24 h, read-out: Avg NO IC50 (nM) (Mean ± SD)
[5] = Table 3, oleanolic acid derivative analogs, read-out: Avg ARE EC-2X
[6] = RAW264.7, Table 3, oleanolic acid derivative analogs, read-out: Avg NO IC50
[7] = Table 3, ursolic acid derivatives, read-out: Avg ARE EC-2X (nM) (Mean ± SD)
[8] = RAW264.7, Table 3, ursolic acid derivatives, read-out: Avg NO IC50 (nM) (Mean ± SD)

| Structure (SMILES) | EC (2-fold) [1, 3] | Relative Avg AREc32 EC2X Relative to RTA402 (fold) ([1]; Table 2) | IC50 [2, 4] | Avg NO IC50 Relative to RTA402 (fold) [2] | EC (2-fold) [1, 5] | IC50 [2, 6] | EC (2-fold) [1, 7] | IC50 [2, 8] |
| --- | --- | --- | --- | --- | --- | --- | --- | --- |
| COC(=O)[C@]12CC[C@@H](C)[C@H](C)[C@H]1[C@H]1C(=O)C[C@@H]3[C@@]4(C)C=C(C#N)C(=O)C(C)(C)[C@@H]4CC[C@@]3(C)[C@]1(C)CC2 [Compound T101] | 142 ± 29 nM | 15.8 ± 2.1 fold | 102 ± 15 nM | 67.7 ± 3.62 fold | – | – | – | – |
| C[C@@H]1[C@H]2[C@H]3C(=O)C=C4[C@@]5(C)C=C(C#N)C(=O)C(C)(C)[C@@H]5CC[C@@]4(C)[C@]3(C)CC[C@@]2(O)CC[C@H]1C [Compound T68] | 7.56 ± 0.77 nM | 0.575 ± 0.141 fold | 7.24 ± 0.77 nM | 2.70 ± 0.28 fold | – | – | – | – |
| Cc1nnc([C@]23CCC(C)(C)C[C@H]2[C@H]2C(=O)C=C4[C@@]5(C)C=C(C#N)C(=O)C(C)(C)[C@@H]5CC[C@@]4(C)[C@]2(C)CC3)o1 [CC69, reference compound] | – | – | – | – | 9.81 nM | 2.2 nM | – | – |
| CC1(C)CC[C@]2(CN3NCCC3=O)CC[C@]3(C)[C@H](C(=O)C=C4[C@@]5(C)C=C(C#N)C(=O)C(C)(C)[C@@H]5CC[C@]43C)[C@@H]2C1 [CC54, reference compound] | – | – | – | – | 11.7 nM | 8.6 nM | – | – |
| CNC(=O)NC[C@]12CC[C@@H](C)[C@H](C)[C@H]1[C@H]1C(=O)C=C3[C@@]4(C)C=C(C#N)C(=O)C(C)(C)[C@@H]4CC[C@@]3(C)[C@]1(C)CC2 [Compound T26] | 2.23 ± 0.29 nM | 0.177 ± 0.020 fold | 5.12 ± 2.22 nM | 1.71 ± 0.70 fold | – | – | 2.23 ± 0.29 nM | 5.12 ± 2.22 nM |
| CC1(C)CC[C@]2(CNC(=O)C3CC3)CC[C@]3(C)[C@H](C(=O)C=C4[C@@]5(C)C=C(C#N)C(=O)C(C)(C)[C@@H]5CC[C@]43C)[C@@H]2C1 [CC19, reference compound] | – | – | – | – | 3.22 nM | 0.5 nM | – | – |
| C[C@@H]1[C@H]2[C@H]3C(=O)C=C4[C@@]5(C)C=C(C#N)C(=O)C(C)(C)[C@@H]5CC[C@@]4(C)[C@]3(C)CC[C@@]2(CC(=O)N2CCC2)CC[C@H]1C [Compound T93] | 4.24 ± 0.66 nM | 0.525 ± 0.129 fold | 5.69 ± 1.93 nM | 3.06 ± 1.70 fold | – | – | – | – |
| CC1(C)CC[C@]2(CNCCO)CC[C@]3(C)[C@H](C(=O)C=C4[C@@]5(C)C=C(C#N)C(=O)C(C)(C)[C@@H]5CC[C@]43C)[C@@H]2C1 [CC40, reference compound] | – | – | – | – | 21.8 nM | 7.5 nM | – | – |
| C[C@@H]1[C@H]2[C@H]3C(=O)C=C4[C@@]5(C)C=C(C#N)C(=O)C(C)(C)[C@@H]5CC[C@@]4(C)[C@]3(C)CC[C@@]2(CCC(=O)NC2CC2)CC[C@H]1C [Compound T81] | 3.1 ± 1.5 nM | 0.238 ± 0.072 fold | 2.31 ± 0.55 nM | 0.92 ± 0.27 fold | – | – | – | – |
| C[C@@H]1[C@H]2[C@H]3[C@H]4C[C@@H]5[C@@]6(C)C=C(C#N)C(=O)C(C)(C)[C@@H]6CC[C@@]5(C)[C@]3(C)CC[C@]2(CC[C@H]1C)C(=O)O4 [Compound T102] | 338 ± 11 nM | 31.2 ± 5.3 fold | 108 ± 19 nM | 36.5 ± 16.9 fold | – | – | – | – |
| C[C@@H]1[C@H]2[C@H]3C(=O)C=C4[C@@]5(C)C=C(C#N)C(=O)C(C)(C)[C@@H]5CC[C@@]4(C)[C@]3(C)CC[C@@]2(CNS(C)(=O)=O)CC[C@H]1C [Compound T31] | 4.36 ± 0.81 nM | 0.373 ± 0.071 fold | 7.7 ± 3.1 nM | 2.25 ± 0.49 fold | – | – | – | – |
| C[C@@H]1[C@H]2[C@H]3C(=O)C=C4[C@@]5(C)C=C(C#N)C(=O)C(C)(C)[C@@H]5CC[C@@]4(C)[C@]3(C)CC[C@@]2(F)CC[C@H]1C [Compound T67] | 11.5 ± 1.6 nM | 0.984 ± 0.119 fold | 12.2 ± 3.5 nM | 3.79 ± 1.16 fold | – | – | – | – |
| CC1(C)CC[C@]2(Cn3ccnc3)CC[C@]3(C)[C@H](C(=O)C=C4[C@@]5(C)C=C(C#N)C(=O)C(C)(C)[C@@H]5CC[C@]43C)[C@@H]2C1 [CC51, reference compound] | – | – | – | – | 18 nM | 3.9 nM | – | – |
| C[C@@H]1[C@H]2[C@H]3C(=O)C=C4[C@@]5(C)C=C(C#N)C(=O)C(C)(C)[C@@H]5CC[C@@]4(C)[C@]3(C)CC[C@@]2(N2CCOC2=O)CC[C@H]1C [CC59, reference compound] | – | – | – | – | 23.6 nM | 2.2 nM | – | – |
| COC(C)c1noc([C@]23CC[C@@H](C)[C@H](C)[C@H]2[C@H]2C(=O)C=C4[C@@]5(C)C=C(C#N)C(=O)C(C)(C)[C@@H]5CC[C@@]4(C)[C@]2(C)CC3)n1 (stereo partly shown) [Compound T6] | 11.8 ± 1.9 nM | 1.03 ± 0.01 fold | 7.66 ± 1.52 nM | 3.67 ± 1.40 fold | – | – | – | – |
| C[C@@H]1[C@H]2[C@H]3C(=O)C=C4[C@@]5(C)C=C(C#N)C(=O)C(C)(C)[C@@H]5CC[C@@]4(C)[C@]3(C)CC[C@@]2(CO)CC[C@H]1C [Compound T13] | 4.95 ± 0.63 nM | 0.358 ± 0.016 fold | 1.86 ± 0.32 nM | 1.25 ± 0.21 fold | – | – | 4.95 ± 0.63 nM | 1.86 ± 0.32 nM |
| CC1(C)CC[C@]2(CN3CCOC3=O)CC[C@]3(C)[C@H](C(=O)C=C4[C@@]5(C)C=C(C#N)C(=O)C(C)(C)[C@@H]5CC[C@]43C)[C@@H]2C1 [CC41, reference compound] | – | – | – | – | 5.12 nM | 1.7 nM | – | – |
| C[C@@H]1[C@H]2[C@H]3C(=O)C=C4[C@@]5(C)C=C(C#N)C(=O)C(C)(C)[C@@H]5CC[C@@]4(C)[C@]3(C)CC[C@@]2(n2cccn2)CC[C@H]1C [Compound T64] | 64 ± 7.6 nM | 6.07 ± 0.87 fold | 35.8 ± 6.1 nM | 14.80 ± 8.92 fold | – | – | – | – |
| [2H]C([2H])([2H])C(=O)NC[C@]12CC[C@@H](C)[C@H](C)[C@H]1[C@H]1C(=O)C=C3[C@@]4(C)C=C(C#N)C(=O)C(C)(C)[C@@H]4CC[C@@]3(C)[C@]1(C)CC2 [Compound T24] | 1.49 ± 0.31 nM | 0.126 ± 0.026 fold | 2.87 ± 1.67 nM | 0.967 ± 0.21 fold | – | – | 1.49 ± 0.31 nM | 2.87 ± 1.67 nM |
| C[C@@H]1[C@H]2[C@H]3C(=O)C=C4[C@@]5(C)C=C(C#N)C(=O)C(C)(C)[C@@H]5CC[C@@]4(C)[C@]3(C)CC[C@@]2(N2CCCC2=O)CC[C@H]1C [Compound T58] | 33.6 ± 3.3 nM | 2.64 ± 0.47 fold | 26 ± 8.8 nM | 8.67 ± 3.30 fold | – | – | 33.6 ± 3.3 nM | 26 ± 8.8 nM |
| CC(=O)N(C)C[C@]12CCC(C)(C)C[C@H]1[C@H]1C(=O)C=C3[C@@]4(C)C=C(C#N)C(=O)C(C)(C)[C@@H]4CC[C@@]3(C)[C@]1(C)CC2 [CC35, reference compound] | – | – | – | – | 6.81 nM | 0.8 nM | – | – |
| C[C@@H]1[C@H]2[C@H]3C(=O)C=C4[C@@]5(C)C=C(C#N)C(=O)C(C)(C)[C@@H]5CC[C@@]4(C)[C@]3(C)CC[C@@]2(Cn2ccnc2)CC[C@H]1C [Compound T51] | 15.3 ± 3.6 nM | 1.2 ± 0.1 fold | 17.4 ± 2.5 nM | 5.79 ± 0.73 fold | – | – | 15.3 ± 3.6 nM | 17.4 ± 2.5 nM |
| CCNC(=O)CC[C@]12CC[C@@H](C)[C@H](C)[C@H]1[C@H]1C(=O)C=C3[C@@]4(C)C=C(C#N)C(=O)C(C)(C)[C@@H]4CC[C@@]3(C)[C@]1(C)CC2 [Compound T79] | 4.32 ± 0.5 nM | 0.361 ± 0.028 fold | 4.5 ± 1.84 nM | 1.25 ± 0.13 fold | – | – | – | – |
| CC1(C)CC[C@]2(CN3CCOC3)CC[C@]3(C)[C@H](C(=O)C=C4[C@@]5(C)C=C(C#N)C(=O)C(C)(C)[C@@H]5CC[C@]43C)[C@@H]2C1 [CC42, reference compound] | – | – | – | – | 122 nM | 17.3 nM | – | – |
| CCC(=O)NC[C@]12CCC(C)(C)C[C@H]1[C@H]1C(=O)C=C3[C@@]4(C)C=C(C#N)C(=O)C(C)(C)[C@@H]4CC[C@@]3(C)[C@]1(C)CC2 [CC23, reference compound] | – | – | – | – | 2.37 nM | 0.4 nM | – | – |
| COC(=O)NC[C@]12CC[C@@H](C)[C@H](C)[C@H]1[C@H]1C(=O)C=C3[C@@]4(C)C=C(C#N)C(=O)C(C)(C)[C@@H]4CC[C@@]3(C)[C@]1(C)CC2 [Compound T30] | 3.29 ± 0.61 nM | 0.27 ± 0.06 fold | 5.12 ± 1.21 nM | 1.33 ± 0.30 fold | – | – | – | – |

Source: patent publication US20240140986A1, “SYNTHETIC URSOLIC ACID DERIVATIVES AND METHODS OF USE THEREOF” (REATA PHARMACEUTICALS, INC., priority 2021, published 2024)
